These results are taken from patent publication US20100111874A1, “METHOD OF CANCER DETECTION AND TREATMENT” (University of Medicine and Dentistry of New Jresey, priority 2007, published 2010).

For the test, the target named is T1, TOP1 (Homo sapiens, UniProt P11387).
T1 construct: endogenous in cells; host or cells: ZR-75-1 and its shRNA clones
T1 sequence (P11387 1-765): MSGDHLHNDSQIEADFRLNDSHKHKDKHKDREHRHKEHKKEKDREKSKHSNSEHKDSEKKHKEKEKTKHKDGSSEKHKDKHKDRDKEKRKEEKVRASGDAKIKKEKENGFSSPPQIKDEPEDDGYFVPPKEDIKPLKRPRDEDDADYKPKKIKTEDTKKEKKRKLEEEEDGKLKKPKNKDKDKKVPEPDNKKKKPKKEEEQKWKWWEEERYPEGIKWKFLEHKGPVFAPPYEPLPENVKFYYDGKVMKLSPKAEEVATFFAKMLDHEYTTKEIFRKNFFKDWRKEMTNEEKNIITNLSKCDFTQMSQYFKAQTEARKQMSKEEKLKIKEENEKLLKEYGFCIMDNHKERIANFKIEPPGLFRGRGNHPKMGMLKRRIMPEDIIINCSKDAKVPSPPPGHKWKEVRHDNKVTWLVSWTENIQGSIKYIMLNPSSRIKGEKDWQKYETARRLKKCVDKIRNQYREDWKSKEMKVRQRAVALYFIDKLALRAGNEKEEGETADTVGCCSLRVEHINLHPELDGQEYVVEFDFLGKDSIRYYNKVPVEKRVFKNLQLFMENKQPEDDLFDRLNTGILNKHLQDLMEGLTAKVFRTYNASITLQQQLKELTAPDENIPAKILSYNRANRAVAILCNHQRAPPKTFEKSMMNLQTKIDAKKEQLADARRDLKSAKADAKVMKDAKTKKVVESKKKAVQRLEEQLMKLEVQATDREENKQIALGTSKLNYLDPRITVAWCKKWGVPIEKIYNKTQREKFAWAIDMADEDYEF
Put plainly: Immunoblotting assay for CPT-induced TOP1 degradation. Type of test: cell-based. The note with it: CPT 25 μM. As for the experimental part:
Band depletion assay for TOP1 cleavage complexes. Cells (106/sample) are treated with CPT (25 μM in 1% DMSO) for various times at 37° C. Cells are then lysed with 0.2 N NaOH containing 2 mM EDTA as described previously (14). Cell lysates are then neutralized with 1/10 volume of a solution containing 10% NP-40, 1 M Tris (pH 7.4), 0.1 M MgCl2, 0.1 M CaCl2, 10 mM dithiothreitol, 1 mM EGTA, and a mixture of peptide protease inhibitors (100 μg/ml each of leupeptin, pepstatin, and aprotinin), followed by the addition of another 1/10 volume of 2 N HCl. Reactions are terminated by the addition of SDS-PAGE sample buffer. Immunoblotting analysis of cell lysates is carried out using anti-Scl-70 antibody from scleroderma patients as described above.
Immunoblotting assay for CPT-induced TOP1 degradation. Cells are prepared for immunoblotting as described above with two modifications. First, cells are incubated in CPT-free medium for 30 min prior to lysis (to reverse TOP1 cleavage complexes and to de-conjugate TOP1-ubiquitin and TOP1-UBL conjugates). Second, neutralized cell lysates are incubated with Staphylococcus aureus nuclease S7 (60 U/reaction) for 20 min on ice (to release TOP1 from residual TOP1-DNA covalent complexes) prior to termination with SDS-PAGE sample buffer.
Example No. 3. […] Panel A, Reduced ISG15 expression in ZR-75-1 cells expressing ISG15 shRNA. Cell lysates of ZR-75-1 clones expressing either control shRNA (lane #1) or ISG15 shRNA (lanes #2) are analyzed by 15% SDS-PAGE. Western blotting analysis is performed using anti-ISG15 antisera (upper panel). […] Panel B, CPT sensitivity. Clonogenic survival assay is carried out as described in Materials and Methods. Colonogenic survival curves of a ZR-75-1 clone expressing control shRNA and ISG15 shRNA after CPT treatment is shown. Mean±SD values from at least two experiments are presented. Panel C, CPT-induced TOP1 down-regulation. ZR-75-1 cells stably transfected with control shRNA (lanes 1-4) or ISG15 shRNA (lanes #5-8) (10^6 cells/sample) are treated with either DMSO (lanes #1 and 5) or CPT (25 μM in 1% DMSO) (lanes #2-4 and 6-8) for various times at 37° C. Subsequently, cells are placed in fresh CPT-free media for 30 min to reverse cleavable complexes. Cell lysis and immunoblotting using anti-hTOP1 antisera are carried out as described in FIG. 1 (upper panels).
Example No. 4. […] Panel A, the reduced UbcH8 protein level in ZR-75-1 cells expressing UbcH8 shRNA. Cell lysates prepared from ZR-75-1 clones expressing either control shRNA (lane #1) or UbcH8 shRNA (lanes #2 and 3, from two independent clones), and the purified UbcH8 protein (lane #4) are analyzed by 15% SDS-PAGE. Western blotting analysis is performed using anti-UbcH8 antibody (Abeam). […] Panel B, UbcH8 shRNA decreases ISG15 conjugation in ZR-75-1 cells. Cell lysates prepared from ZR-75-1 clones expressing either control shRNA (lane #1) or UbcH8 shRNA (lanes #2 and 3, two independent clones), and the purified UbcH8 protein (lane #4) are analyzed by 15% SDS-PAGE. Western blotting analysis is performed using anti-ISG15 antibody. The non-specific bands are due to the crossreactivity of the ISG15 antibody to bovine serum albumin. Panel C, knocking down UbcH8 confers CPT resistance. ZR-75-1 clones expressing control shRNA and UbcH8 shRNA (two independent clones) are treated with CPT and cell survival is measured as described in Example 3. Panels D-F, CPT-induced TOP1 down-regulation is […] in ZR-75-1 cells expressing UbcH8 shRNA. Clonal cells of ZR-75-1 expressing control (panel D) or UbcH8 shRNA (panels E and F, representing two independent clones) (10^6/sample) are treated with either DMSO (lanes #1, 5, and 9) or CPT (25 μM in 1% DMSO) (lanes #2-4, 6-8, and 10-12) for various times at 37° C. Cells are then placed in fresh CPT-free media for 30 min to reverse cleavage complexes. Cell lysis and immunoblotting using anti-hTOP1 antibody are carried out as described in Example 1.

SMILES strings stand for the structures.

For the molecule `CC[C@@]1(O)C(=O)OCc2c1cc1n(c2=O)Cc2cc3ccccc3nc2-1` [CPT, camptothecin], the TOP1 down-regulation entry reads like this: (MCF7/RC cells) “increased”; (ZR/ISG15-shRNA1 cells, 2 hrs) “about 50%”; (ZR/control-shRNA1 cells) “minimal”; (ZR/control-shRNA2 cells) “minimal”; (parental MCF7 cells) “minimal”. Moreover, the “degradation of TOP1” value is recorded as “about 50%” (ZR/UbcH8-shRNA1 cells, 2 hrs) and “about 50%” (ZR/UbcH8-shRNA2 cells, 2 hrs).
